Test results: ChEMBL document CHEMBL5528083, “Discovery of a Novel Thienopyrimidine Compound as a Urate Transporter 1 and Glucose Transporter 9 Dual Inhibitor with Improved Efficacy and Favorable Druggability” (J Med Chem, 2024)

What was measured:
Mus musculus [1] = species: Mus musculus; experiment: Reduction in serum uric acid level in acute hyperuricemia state Kunming mouse model assessed as SUA level; type: functional
Mus musculus [2] = species: Mus musculus; experiment: Reduction in serum uric acid level in acute hyperuricemia state Kunming mouse model assessed as SUA level by measuring decrease ratio relative to control; type: functional; parameters: concentration or dose not given beside the values
[3] = target: T1, Solute carrier family 22 member 12 (Homo sapiens, UniProt Q96S37); experiment: Inhibition of human URAT1 expressed in HEK293T cells using 14C- uric acid assessed as uric acid absorption by measuring intracellular liquid radiation value by liquid scintillation counting analysis; type: cell-based
T1 sequence (Q96S37 whole entry): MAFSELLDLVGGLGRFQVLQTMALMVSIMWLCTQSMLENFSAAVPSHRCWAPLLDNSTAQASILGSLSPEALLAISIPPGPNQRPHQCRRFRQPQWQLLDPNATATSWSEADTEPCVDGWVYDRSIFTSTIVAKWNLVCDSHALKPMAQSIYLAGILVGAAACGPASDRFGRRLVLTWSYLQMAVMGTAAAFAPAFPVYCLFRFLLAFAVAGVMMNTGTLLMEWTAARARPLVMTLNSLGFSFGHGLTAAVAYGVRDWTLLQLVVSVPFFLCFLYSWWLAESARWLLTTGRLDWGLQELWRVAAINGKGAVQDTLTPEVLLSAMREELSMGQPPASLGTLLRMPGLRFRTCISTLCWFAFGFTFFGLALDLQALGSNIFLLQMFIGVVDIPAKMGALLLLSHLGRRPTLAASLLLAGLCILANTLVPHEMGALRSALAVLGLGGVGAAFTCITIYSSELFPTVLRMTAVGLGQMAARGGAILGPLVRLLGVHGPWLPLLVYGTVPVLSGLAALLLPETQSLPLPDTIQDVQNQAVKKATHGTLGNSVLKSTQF

[4] = target: Xanthine dehydrogenase/oxidase (Bos taurus, UniProt P80457); experiment: Inhibition of bovine XOD using xanthine as substrate assessed as inhibitory ratio at 10 uM by spectrophotometric analysis relative to control; settings: cattle
Sequence of Xanthine dehydrogenase/oxidase (P80457 whole entry): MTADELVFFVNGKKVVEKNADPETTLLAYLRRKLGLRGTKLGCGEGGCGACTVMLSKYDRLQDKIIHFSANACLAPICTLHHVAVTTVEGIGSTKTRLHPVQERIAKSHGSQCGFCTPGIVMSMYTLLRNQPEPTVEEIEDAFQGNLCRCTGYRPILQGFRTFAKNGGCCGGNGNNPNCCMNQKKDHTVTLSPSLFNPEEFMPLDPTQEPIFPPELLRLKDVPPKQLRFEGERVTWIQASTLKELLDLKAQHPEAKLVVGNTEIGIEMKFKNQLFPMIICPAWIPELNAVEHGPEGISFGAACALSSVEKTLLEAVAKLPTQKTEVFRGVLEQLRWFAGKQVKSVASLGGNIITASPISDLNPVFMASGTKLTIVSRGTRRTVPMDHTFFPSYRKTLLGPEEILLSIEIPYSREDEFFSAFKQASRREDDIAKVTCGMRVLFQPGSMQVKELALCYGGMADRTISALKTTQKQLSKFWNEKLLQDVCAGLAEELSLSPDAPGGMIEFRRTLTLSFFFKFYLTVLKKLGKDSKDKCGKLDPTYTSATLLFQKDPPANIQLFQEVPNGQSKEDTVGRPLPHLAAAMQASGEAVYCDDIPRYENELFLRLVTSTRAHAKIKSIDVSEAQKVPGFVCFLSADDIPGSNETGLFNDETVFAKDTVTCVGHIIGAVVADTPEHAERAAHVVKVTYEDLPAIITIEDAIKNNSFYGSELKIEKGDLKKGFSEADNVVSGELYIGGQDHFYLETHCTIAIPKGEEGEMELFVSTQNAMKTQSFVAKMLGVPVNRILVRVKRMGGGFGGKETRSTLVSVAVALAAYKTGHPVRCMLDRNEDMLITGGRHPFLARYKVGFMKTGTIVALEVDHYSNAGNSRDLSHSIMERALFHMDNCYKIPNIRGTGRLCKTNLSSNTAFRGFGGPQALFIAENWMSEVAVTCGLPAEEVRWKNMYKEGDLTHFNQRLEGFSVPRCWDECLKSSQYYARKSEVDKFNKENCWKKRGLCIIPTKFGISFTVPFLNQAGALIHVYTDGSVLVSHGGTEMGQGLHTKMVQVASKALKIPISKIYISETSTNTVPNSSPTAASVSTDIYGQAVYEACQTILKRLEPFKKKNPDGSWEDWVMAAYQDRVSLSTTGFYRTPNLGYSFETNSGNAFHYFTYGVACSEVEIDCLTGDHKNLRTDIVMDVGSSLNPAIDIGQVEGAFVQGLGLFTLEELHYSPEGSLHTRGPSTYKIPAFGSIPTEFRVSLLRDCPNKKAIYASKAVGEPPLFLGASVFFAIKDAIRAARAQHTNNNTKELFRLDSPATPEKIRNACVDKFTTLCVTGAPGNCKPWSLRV

Row | Compound | Activity (Mus musculus [1]) | Activity (Mus musculus [2]) | IC50 [3] | inhibition at 10 µM [4]
1 | O=C(O)CCCSc1nc2c(c(Nc3ccc(C4CC4)c4ccccc34)n1)COC2 | 1120.8 µM |  |  | 
2 | O=C(O)CCSc1nccc(Nc2ccc(C3CC3)c3ccccc23)n1 | 880.2 µM | 24.6% |  | 
3 | COc1cc2nc(SCCCC(=O)O)nc(Nc3ccc(C4CC4)c4ccccc34)c2cc1OC | 465.4 µM | 62.3% |  | 
4 | O=C(O)CSc1nc(Nc2ccc(C3CC3)c3ccccc23)c2sccc2n1 | 1062.6 µM | 1.1% |  | 
5 | COc1cc2nc(SC3(C(=O)O)CCC3)nc(Nc3ccc(C4CC4)c4ccccc34)c2cc1OC | 214.4 µM | 89.1% |  | 
6 | O=C(O)C1(Sc2nc(Nc3ccc(C4CC4)c4ccccc34)c3ccc(F)cc3n2)CCC1 | 734.6 µM | 33% |  | 
7 | O=C(O)CCSc1nc(Nc2ccc(C3CC3)c3ccccc23)c2ccccc2n1 | 276.2 µM | 84.7% |  | 
8 | O=C(O)C1(Sc2nc3c(c(Nc4ccc(C5CC5)c5ccccc45)n2)SCC3)CCC1 | 1014.8 µM | 3.42% |  | 
9 | CC(C)(Sc1nc(Nc2ccc(C3CC3)c3ccccc23)c2ccc(F)cc2n1)C(=O)O | 284.8 µM | 82.4% |  | 
10 | CC(Sc1nc(Nc2ccc(C3CC3)c3ccccc23)c2sccc2n1)C(=O)O (stereo unspecified) | 412 µM | 69.9% |  | 
11 | O=C(O)C1(Sc2nc3c(c(Nc4ccc(C5CC5)c5ccccc45)n2)CCC3)CCC1 | 614.6 µM | 50.3% |  | 
12 | O=C(O)CCSc1nc2c(c(Nc3ccc(C4CC4)c4ccccc34)n1)SCC2 | 1013.8 µM | 3.54% |  | 
13 | CC(Sc1nc(Nc2ccc(C3CC3)c3ccccc23)c2ccsc2n1)C(=O)O (stereo unspecified) | 884 µM | 20% |  | 
14 | O=C(O)CSc1nc(Nc2ccc(C3CC3)c3ccccc23)c2ccsc2n1 | 368.2 µM | 74.5% |  | 
15 | CC(Sc1nc(Nc2ccc(C3CC3)c3ccccc23)c2ccccc2n1)C(=O)O (stereo unspecified) | 911.8 µM | 21.5% |  | 
16 | CC(C)(Sc1nc(Nc2ccc(C3CC3)c3ccccc23)c2sccc2n1)C(=O)O | 425.4 µM | 68.5% |  | 
17 | O=C(O)CCCSc1nc(Nc2ccc(C3CC3)c3ccccc23)c2ccccc2n1 | 478.2 µM | 64.6% |  | 
18 | O=C(O)C1(Sc2nc(Nc3ccc(C4CC4)c4ccccc34)c3ccccc3n2)CCC1 | 608.8 µM | 51.6% |  | 
19 | O=C(O)C1(Sc2nccc(Nc3ccc(C4CC4)c4ccccc34)n2)CCC1 | 537.8 µM | 58.7% |  | 
20 | O=C(O)CCCSc1nc(Nc2ccc(C3CC3)c3ccccc23)c2ccc(F)cc2n1 | 944.6 µM | 9.9% |  | 
21 | CC(C)(Sc1nc2c(c(Nc3ccc(C4CC4)c4ccccc34)n1)CCC2)C(=O)O | 256.6 µM | 92.2% | 3.96 µM | 
22 | O=C(O)CCCSc1nc2c(c(Nc3ccc(C4CC4)c4ccccc34)n1)CCC2 | 851 µM | 22.6% |  | 
23 | O=C(O)CSc1nc2c(c(Nc3ccc(C4CC4)c4ccccc34)n1)COC2 | 1014.4 µM | 2.3% |  | 
24 | O=C(O)CCSc1nc(Nc2ccc(C3CC3)c3ccccc23)c2sccc2n1 | 209.6 µM | 91.3% | 2.75 µM | 
25 | CC(Sc1nc2c(c(Nc3ccc(C4CC4)c4ccccc34)n1)COC2)C(=O)O (stereo unspecified) | 994.41 µM | 4.5% |  | 
26 | O=C(O)CSc1nc(Nc2ccc(C3CC3)c3ccccc23)c2ccccc2n1 | 294.2 µM | 82.9% |  | 
27 | CC(Sc1nc2c(c(Nc3ccc(C4CC4)c4ccccc34)n1)CCC2)C(=O)O (stereo unspecified) | 594.6 µM | 52.6% |  | 

Row | Compound | Activity (Mus musculus [1]) | Activity (Mus musculus [2]) | IC50 [3] | inhibition at 10 µM [4]
28 | COc1cc2nc(SC(C)(C)C(=O)O)nc(Nc3ccc(C4CC4)c4ccccc34)c2cc1OC | 976.2 µM | 7.8% |  | 
29 | CC(Sc1nc2c(c(Nc3ccc(C4CC4)c4ccccc34)n1)SCC2)C(=O)O (stereo unspecified) | 1114.8 µM |  |  | 
30 | CC(C)(Sc1nc(Nc2ccc(C3CC3)c3ccccc23)c2ccsc2n1)C(=O)O | 447.2 µM | 66.2% |  | 
31 | O=C(O)C1(Sc2nc(Nc3ccc(C4CC4)c4ccccc34)c3sccc3n2)CCC1 | 744 µM | 34.8% |  | 
32 | O=C(O)CCSc1nc2c(c(Nc3ccc(C4CC4)c4ccccc34)n1)COC2 | 797.6 µM | 26.1% |  | 
33 | COc1cc2nc(SCC(=O)O)nc(Nc3ccc(C4CC4)c4ccccc34)c2cc1OC | 193.4 µM | 91.3% | 4.86 µM | 
34 | O=C(O)CSc1nc2c(c(Nc3ccc(C4CC4)c4ccccc34)n1)CCC2 | 831.4 µM | 24.9% |  | 
35 | O=C(O)C1(Sc2nc(Nc3ccc(C4CC4)c4ccccc34)c3ccsc3n2)CCC1 | 734.6 µM | 35.8% |  | 
36 | O=C(O)CCSc1nc(Nc2ccc(C3CC3)c3ccccc23)c2ccc(F)cc2n1 | 912.4 µM | 13.5% |  | 
37 | COc1cc2nc(SC(C)C(=O)O)nc(Nc3ccc(C4CC4)c4ccccc34)c2cc1OC (stereo unspecified) | 1039.4 µM | 1% |  | 
38 | CC(C)(Sc1nc2c(c(Nc3ccc(C4CC4)c4ccccc34)n1)COC2)C(=O)O | 1040 µM |  |  | 
39 | O=C(O)CCCSc1nc(Nc2ccc(C3CC3)c3ccccc23)c2ccsc2n1 | 225 µM | 89.6% |  | 
40 | O=C(O)CSc1nc2c(c(Nc3ccc(C4CC4)c4ccccc34)n1)SCC2 | 285.8 µM | 88.8% |  | 
41 | O=C(O)CSc1nccc(Nc2ccc(C3CC3)c3ccccc23)n1 | 442.4 µM | 68.2% |  | 
42 | CC(C)(Sc1nc2c(c(Nc3ccc(C4CC4)c4ccccc34)n1)SCC2)C(=O)O | 297.2 µM | 87.5% |  | 
43 | CC(Sc1nc(Nc2ccc(C3CC3)c3ccccc23)c2ccc(F)cc2n1)C(=O)O (stereo unspecified) | 482.4 µM | 60.7% |  | 
44 | O=C(O)C1(Sc2nc3c(c(Nc4ccc(C5CC5)c5ccccc45)n2)COC3)CCC1 | 1021.4 µM | 1.5% |  | 
45 | O=C(O)CCCSc1nccc(Nc2ccc(C3CC3)c3ccccc23)n1 | 198.2 µM | 92.4% | 4.73 µM | 
46 | COc1cc2nc(SCCC(=O)O)nc(Nc3ccc(C4CC4)c4ccccc34)c2cc1OC | 828 µM | 23.6% |  | 
47 | O=C(O)CSc1nc(Nc2ccc(C3CC3)c3ccccc23)c2ccc(F)cc2n1 | 210.4 µM | 90.6% |  | 
48 | O=C(O)CCSc1nc2c(c(Nc3ccc(C4CC4)c4ccccc34)n1)CCC2 | 226.6 µM | 95.7% | 3.75 µM | 
49 | CC(C)(Sc1nccc(Nc2ccc(C3CC3)c3ccccc23)n1)C(=O)O | 212.6 µM | 91% | 2.51 µM | 
50 | CC(Sc1nccc(Nc2ccc(C3CC3)c3ccccc23)n1)C(=O)O (stereo unspecified) | 234 µM | 88.9% |  | 
51 | O=C(O)CCSc1nc(Nc2ccc(C3CC3)c3ccccc23)c2ccsc2n1 | 196.4 µM | 92.7% |  | 
52 | Cc1nc(-c2ccc(OCC(C)C)c(C#N)c2)sc1C(=O)O [FEBUXOSTAT] |  |  |  | 102%
53 | O=C(O)CCCSc1nc2c(c(Nc3ccc(C4CC4)c4ccccc34)n1)SCC2 | 514.4 µM | 62% |  | 
54 | CC(C)(Sc1nc(Nc2ccc(C3CC3)c3ccccc23)c2ccccc2n1)C(=O)O | 200.8 µM | 92.2% | 4.35 µM | 
